# Experimental data published in patent publication US9102648B1, “Bioavailable diacylhydrazine ligands for modulating the expression of exogenous genes via an ecdysone receptor complex” (Intrexon Corporation, priority 2003, dated 2015).
# What was measured:
# [1] = system: Caco-2 monolayers; test: Bi-directional permeability, CACO-2; format: in vitro ADME; details: for Papp B-A / Papp A-B Ratio: Caco-2 efflux ratio
# Description: (§1) Caco-2 monolayers were grown to confluence on collagen-coated, microporous, polycarbonate membranes in 12-well Costar Transwell plates. Details of the plates and their certification are shown below. The permeability assay buffer was Hank's Balanced Salt Solution containing 10 mM HEPES and 15 mM glucose at a pH of 7.0±0.2. The dosing solution concentration was 10 μM in assay buffer. At each time point, 1 and 2 hours, a 200-μL aliquot was taken from the receiver chamber and replaced with fresh assay buffer. Cells were dosed on the apical side (A-to-B) or basolateral side (B-to-A) and incubated at 37° C. with 5% CO2 and 90% relative humidity. Each determination was performed in duplicate. The important experimental parameters are outlined below. Permeability through a cell-free (blank) membrane was studied to determine non-specific binding and free diffusion of the compound through the device. Lucifer yellow flux was also measured for each monolayer after being subjected to the test compounds to ensure no damage was inflicted to the cell monolayers during the flux period.
# (§2) All samples were assayed by LC/MS using electrospray ionization. Typical LC/MS conditions are as follows:
# (§3) dCr/dt is the cumulative concentration in the receiver compartment versus time in M s^−1.
# (§4) Vr is the volume of the receiver compartment in cm^3.
# (§5) Vd is the volume of the donor compartment in cm^3.
# (§6) A is the area of the cell monolayer (1.13 cm^2 for 12-well Transwell).
# (§7) C0 is the concentration of the dosing solution in M.
# (§8) Cr^final is the cumulative receiver concentration in M at the end of the incubation period.
# (§9) Cd^final is the concentration of the donor in M at the end of the incubation period.
# [2] = Bi-directional permeability, CACO-2; format: in vitro ADME; details: human, Caco-2, Papp × 10^−6 cm/s (plate certification)
# Description: as §1, §2, §3, §4, §5, §6, §7, §8, §9
# [3] = target: T1, Bombyx mori EcR (VP16 fusion, CVBE switch construct) (Bombyx mori, UniProt P49881); test: Z3 Assay (HEK-293 cells with CVBE and 6XEcRE LacZ, β-galactosidase reporter); details: for Fold Induction, Z3 Assay, 3.3 uM: 3.3 uM ligand; for Z3 assay Rel Max FI: maximum fold induction at any concentration relative to that of GS-E ligand; for Z3 assay Rel Max FI / EC50: HEK-293 Z3 cells; for EC50: read-out: Z3 assay EC50, β-galactosidase reporter
# T1 sequence (P49881 86-606): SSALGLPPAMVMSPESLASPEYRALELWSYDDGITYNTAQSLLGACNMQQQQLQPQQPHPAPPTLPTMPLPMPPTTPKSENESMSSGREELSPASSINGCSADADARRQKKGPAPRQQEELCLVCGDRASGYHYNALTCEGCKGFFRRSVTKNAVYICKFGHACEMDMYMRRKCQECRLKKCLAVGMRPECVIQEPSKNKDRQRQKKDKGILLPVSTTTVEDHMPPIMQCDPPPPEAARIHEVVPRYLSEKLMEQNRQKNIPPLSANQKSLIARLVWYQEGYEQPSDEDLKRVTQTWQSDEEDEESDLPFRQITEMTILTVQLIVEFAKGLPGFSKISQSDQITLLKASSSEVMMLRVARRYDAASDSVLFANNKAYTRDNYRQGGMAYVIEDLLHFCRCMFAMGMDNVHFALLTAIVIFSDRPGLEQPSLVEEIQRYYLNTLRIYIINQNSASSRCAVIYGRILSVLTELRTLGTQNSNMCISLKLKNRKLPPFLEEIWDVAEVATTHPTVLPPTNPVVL
# T1 sequence (P19793 1-462 partner): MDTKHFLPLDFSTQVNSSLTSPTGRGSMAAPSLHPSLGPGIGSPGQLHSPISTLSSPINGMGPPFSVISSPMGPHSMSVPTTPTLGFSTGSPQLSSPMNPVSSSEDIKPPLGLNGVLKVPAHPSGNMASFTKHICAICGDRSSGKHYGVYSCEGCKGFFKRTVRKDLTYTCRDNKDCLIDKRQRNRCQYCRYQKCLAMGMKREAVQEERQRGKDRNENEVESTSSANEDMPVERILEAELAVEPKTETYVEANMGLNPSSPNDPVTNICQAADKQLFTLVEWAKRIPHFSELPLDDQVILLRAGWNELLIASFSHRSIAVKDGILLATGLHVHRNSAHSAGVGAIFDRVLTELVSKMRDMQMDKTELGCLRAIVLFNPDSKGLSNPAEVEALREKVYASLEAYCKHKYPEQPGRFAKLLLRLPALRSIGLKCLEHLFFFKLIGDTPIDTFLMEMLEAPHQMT
# [4] = Aqueous equilibrium solubility in pH 7.4 buffer; details: pH 7.4 aqueous buffer, room temperature, equilibrium
# Description: Equilibrium solubility was measured in pH 7.4 aqueous buffer. The buffer was prepared by adjusting the pH of a 0.07 M solution of NaH2PO4 to pH 7.4 with 10 N NaOH. […] At least 1 mg of powder was combined with 1 mL of buffer to make >1 mg/mL mixture. These samples were shaken for ≧2 hours and left to stand overnight at room temperature. The samples were then filtered through a 0.45-μm Nylon syringe filter that was first saturated with the sample. The filtrate was sampled twice, consecutively. The filtrate was assayed by HPLC against standards prepared in methanol.
# [5] = Partition coefficient Log (D), 1-octanol / pH 7.4 buffer; format: physicochemical; details: for Log(D) Octanol/pH 7.4: water-saturated 1-octanol / pH 7.4 buffer, room temperature
# Description: The partition coefficient, Log (D), between water-saturated 1-octanol and pH 7.4 buffer was determined for the test compounds. The buffer was prepared as described in section 2. A 12 μl aliquot of a 10 mM stock solution in DMSO was introduced to a vial containing 0.60 mL of octanol and 0.60 mL of buffer at room temperature. Testosterone was also added to a final concentration of 100 μM as an internal control. The solution was vortexed for 60 minutes and centrifuged at 10,000 rpm for 10 minutes. The organic and aqueous layers were removed. Serial dilutions of the organic layer were made with 50% methanol except for the initial dilution, which was made in 100% methanol. Serial dilutions of the aqueous layer were made in the pH 7.4 buffer. The diluted samples were then assayed by LC/MS for the compound as well as for testosterone. The Log of the ratio of peak area responses was calculated to obtain the Log (D). Typical Log D values for testosterone are from 3.0-3.3.
# [6] = Determination of LC Log P (experimental); format: physicochemical; details: diacylhydrazine log P standards (log P known experimentally)
# Description: Liquid chromatography retention times (RT) are measured for each substance using the conditions described below. A linear equation is derived relating RT to log P is developed from the data for the log P standards. The log P for the test compound is calculated from the log P/retention time equation.
# [7] = ligand treated / DMSO treated cells, average of two wells
Compound,Solubility pH 7.4 [4],Log(D) Octanol/pH 7.4 [5],Papp Blank ([1]; Caco-2),"Papp, A-to-B Avg ([1]; Caco-2)","Papp, A-to-B Rep. 1 ([1]; Caco-2)","Papp, A-to-B Rep. 2 ([1]; Caco-2)","Papp, B-to-A Avg ([1]; Caco-2)","Papp, B-to-A Rep. 1 ([1]; Caco-2)","Papp, B-to-A Rep. 2 ([1]; Caco-2)",logP [6],other results
"CC(C)NCC(O)COc1cccc2ccccc12 (stereo not shown) [Propranolol, reference compound]",–,–,–,–,–,–,–,–,–,–,"Papp × 10^−6 cm/s (plate certification) ([1]; human, Caco-2): 19 10^−6 cm/s; Papp [2]: 20 ×10⁻⁶ cm/s"
CC(O)c1ccc(C(=O)NN(C(=O)c2cc(CO)cc(CO)c2)C(C)(C)C)cc1 (stereo not shown) [RG-100021],≧1.0 mg/mL,0.8,43.0 10^−6 cm/s,0.22 10^−6 cm/s,0.21 10^−6 cm/s,0.22 10^−6 cm/s,0.93 10^−6 cm/s,0.91 10^−6 cm/s,0.95 10^−6 cm/s,–,"Fold Induction, Z3 Assay, 33 uM ([3]; 33 uM ligand, ligand treated / DMSO treated cells, average of two wells): 1; Significant Efflux ([1]; Caco-2): No"
"C[C@]12CC[C@H]3[C@@H](CCC4=CC(=O)CC[C@@]43C)[C@@H]1CC[C@@H]2O [testosterone, Testosterone, reference compound]",–,–,–,–,–,–,–,–,–,–,"logD ([5]; internal control, octanol / pH 7.4 buffer, read-out: Typical Log D values): 3 to 3.3"
"CCc1c(C(=O)NN(C(=O)c2ccc(F)cc2Cl)C(C)(C)C)ccc2c1OCOC2 [RG-115002, reference compound]",–,–,–,–,–,–,–,–,–,3.5,–
"Cc1cc(C)cc(C(=O)N(NC(=O)c2cccc(O)c2C)C(C)(C)C)c1 [RG-102208, reference compound]",–,–,–,–,–,–,–,–,–,2.9,–
CCc1c(OC)cccc1C(=O)NN(C(=O)c1ccccc1[S+](C)[O-])C(C)(C)C (stereo not shown) [RG-115199],0.0064 mg/mL,2.0,23.0 10^−6 cm/s,30.6 10^−6 cm/s,31.1 10^−6 cm/s,30.2 10^−6 cm/s,30.9 10^−6 cm/s,31.0 10^−6 cm/s,30.9 10^−6 cm/s,–,"Fold Induction, Z3 Assay, 3.3 uM [3, 7]: 349; Z3 assay Rel Max FI [3]: 0.734; EC50 ([3]; average of two wells): 3.47 µM; Significant Efflux ([1]; Caco-2): No; Papp B-A / Papp A-B Ratio [1]: 1.0"
"CCc1ccc(C(=O)NN(C(=O)c2cc(Cl)cc(Cl)c2)C(C)(C)C)c(F)c1 [RG-115372, reference compound]",–,–,–,–,–,–,–,–,–,5.02,–
CCc1c(OC)cccc1C(=O)NN(C(=O)c1ccccc1S(=O)(=O)O)C(C)(C)C [RG-115555],≧1.0 mg/mL,0.0,35.8 10^−6 cm/s,0.18 10^−6 cm/s,0.18 10^−6 cm/s,0.18 10^−6 cm/s,1.61 10^−6 cm/s,1.55 10^−6 cm/s,1.67 10^−6 cm/s,–,"Fold Induction, Z3 Assay, 3.3 uM [3, 7]: 1; Z3 assay Rel Max FI [3]: 0.006; EC50 ([3]; average of two wells): > 50 µM; Papp B-A / Papp A-B Ratio [1]: 8.9"
Lucifer Yellow [reference compound],–,–,–,–,–,–,–,–,–,–,"Papp × 10^−6 cm/s (plate certification) ([1]; Caco-2 plate TW12, first certification column (seed date Jun. 11, 2002)): 0.14 10^−6 cm/s; Papp × 10^−6 cm/s (plate certification) ([1]; Caco-2 plate TW12, second certification column (seed date Jun. 18, 2002)): 0.12 10^−6 cm/s"
